Assay results from publication PMC6780165, “Verruculosins A–B, New Oligophenalenone Dimers from the Soft Coral-Derived Fungus Talaromyces verruculosus” (Marine Drugs, 2019).

Legend:
EGFR tyrosine kinase = EGFR tyrosine kinase (Homo sapiens, UniProt P00533); experiment: EGFR tyrosine kinase inhibitory activity (ELISA); assay type: biochemical; conditions: poly(Glu, Tyr)4:1 substrate, 10 μM ATP, 60 min at 37 °C, read-out: Anti-EGFR IC50 (µM) ± SD
Procedure: The EGFR tyrosine kinase inhibitory activity was tested using enzyme-linked immunosorbent assay (ELISA). The compounds were dissolved in dimethyl sulfoxide (DMSO) buffer solution and were then distributed to a 96-well plate pre-coated with poly(Glu, Tyr)4:1 as a substrate. Each well was treated with 50 μL of 10 μM ATP solution diluted with reaction buffer and the reaction was started by the addition of EGFR tyrosine kinase. After 60 min of incubation at 37 °C, the plate was washed three times with phosphate buffered saline containing 0.1% Tween 20 (PBST). Next, antiphosphotyrosine (PY99) antibody 100 μL was added. After incubation for 30 min at 37 °C, the plate was washed three times and goat anti-mouse IgG horseradish peroxidase was added. The plate was reincubated at 37 °C for 30 min and washed as before. Lastly, 100 μL of color development solution was added and the plate was incubated at room temperature until color emerged. The reaction was terminated by adding 50 μL of 2 M H2SO4, and the absorbance was measured on the Molecular Devices SpectraMax 190 microplatereader at 490 nm [20]. The known EGFR inhibitor, afatibib, was utilized as a positive control, and 0.1% (v/v) DMSO was used as a negative control.

CDC25B = target: T1, CDC25B (Homo sapiens, UniProt P30305); experiment: CDC25B enzymatic activity assay (OMFP dephosphorylation); assay type: biochemical; conditions: OMFP substrate 10 μM, 100 nM CDC25B, 30 °C, pH 8.0; read-out: Anti-CDC25B IC50 (µM) ± SD
T1 sequence (P30305 1-580): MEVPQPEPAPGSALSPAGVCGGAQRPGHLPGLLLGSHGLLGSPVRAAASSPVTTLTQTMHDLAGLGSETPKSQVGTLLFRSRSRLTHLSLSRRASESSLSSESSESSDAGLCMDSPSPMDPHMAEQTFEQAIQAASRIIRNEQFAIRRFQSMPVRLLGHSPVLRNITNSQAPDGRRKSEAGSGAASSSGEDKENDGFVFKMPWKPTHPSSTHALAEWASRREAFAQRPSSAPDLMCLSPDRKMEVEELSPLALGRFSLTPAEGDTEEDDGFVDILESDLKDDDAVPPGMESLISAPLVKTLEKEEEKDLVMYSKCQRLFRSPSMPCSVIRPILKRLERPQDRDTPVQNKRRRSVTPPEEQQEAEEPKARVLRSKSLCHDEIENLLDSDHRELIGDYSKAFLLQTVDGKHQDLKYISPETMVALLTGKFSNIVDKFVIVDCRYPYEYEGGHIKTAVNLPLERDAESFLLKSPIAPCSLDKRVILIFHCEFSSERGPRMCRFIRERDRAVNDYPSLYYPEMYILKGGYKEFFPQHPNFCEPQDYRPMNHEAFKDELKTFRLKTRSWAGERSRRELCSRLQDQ
Procedure: The enzymatic activity of the CDC25B was determined at 30 °C by monitoring the dephosphorylation of 3-O-methylfluorescein phosphate (OMFP), which was used as a substrate for the CDC25B and can be monitored at a 535 nm emission wavelength and 485 nm excitation wavelength in the EnVisionmultilabel plate reader. The assay was measured in a 100 μL mixture system containing 50 mM Tris-HCl, pH 8.0, 50 mM NaCl, 10 μM OMFP, 100 nM CDC25B, 1 mM dithiothreitol (DTT), 1 mM ethylene diamine tetraacetic acid (EDTA), 1% glycerin, and 2 mg/L compound. The initial rate of the dephosphorylation was determined using the early linear region of the enzymatic reaction kinetic curve. DMSO and Na3VO4 were used as negative and positive controls, respectively.

[1] = system: human non-small cell lung carcinoma (NCL-H460) cells; parameters: method as in ref 8, ref 9; conditions: cited from earlier work
[2] = system: human breast cancer (MCF-7) cells; parameters: method as in ref 8, ref 9; conditions: cited from earlier work
[3] = system: human cervical cancer (Hela) cells; parameters: method as in ref 8, ref 9; conditions: cited from earlier work
[4] = system: mitochondrial respiration; parameters: method as in PMID 7122988; conditions: cited from earlier work
[5] = system: murine leukemia L-1210 cells; parameters: method as in ref 5, ref 6; conditions: cited from earlier work

EGFR tyrosine kinase, sequence (P00533 25-1210): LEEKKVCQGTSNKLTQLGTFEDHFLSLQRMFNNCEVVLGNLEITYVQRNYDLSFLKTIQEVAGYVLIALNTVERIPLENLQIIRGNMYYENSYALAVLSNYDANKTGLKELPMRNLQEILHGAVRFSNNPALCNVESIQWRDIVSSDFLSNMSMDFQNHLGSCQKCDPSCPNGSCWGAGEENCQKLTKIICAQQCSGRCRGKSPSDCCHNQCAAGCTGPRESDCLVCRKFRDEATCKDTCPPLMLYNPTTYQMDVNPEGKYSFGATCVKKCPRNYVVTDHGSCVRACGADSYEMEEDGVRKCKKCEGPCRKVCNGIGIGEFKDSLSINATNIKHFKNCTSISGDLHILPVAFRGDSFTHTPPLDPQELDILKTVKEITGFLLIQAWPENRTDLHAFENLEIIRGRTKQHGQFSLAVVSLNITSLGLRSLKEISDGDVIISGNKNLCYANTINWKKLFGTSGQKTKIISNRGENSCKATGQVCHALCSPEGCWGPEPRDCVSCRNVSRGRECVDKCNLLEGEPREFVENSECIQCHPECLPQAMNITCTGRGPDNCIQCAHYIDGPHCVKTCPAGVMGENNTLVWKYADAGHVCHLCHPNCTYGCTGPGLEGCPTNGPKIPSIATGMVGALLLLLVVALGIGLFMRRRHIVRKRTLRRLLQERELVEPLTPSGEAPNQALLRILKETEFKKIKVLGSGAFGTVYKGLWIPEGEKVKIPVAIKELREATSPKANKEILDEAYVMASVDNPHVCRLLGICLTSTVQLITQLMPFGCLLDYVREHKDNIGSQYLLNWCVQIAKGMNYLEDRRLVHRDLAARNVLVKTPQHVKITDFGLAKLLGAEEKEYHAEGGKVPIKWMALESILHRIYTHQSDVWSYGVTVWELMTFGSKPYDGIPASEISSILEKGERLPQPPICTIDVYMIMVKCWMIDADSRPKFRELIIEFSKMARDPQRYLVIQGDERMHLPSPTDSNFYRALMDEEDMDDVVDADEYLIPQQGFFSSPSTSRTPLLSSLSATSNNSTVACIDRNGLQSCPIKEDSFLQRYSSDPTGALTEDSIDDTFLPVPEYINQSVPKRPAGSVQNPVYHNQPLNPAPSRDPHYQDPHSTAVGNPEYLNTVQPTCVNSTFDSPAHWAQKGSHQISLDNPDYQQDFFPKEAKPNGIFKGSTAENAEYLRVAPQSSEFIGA

| Compound | IC50 (EGFR tyrosine kinase) | IC50 (CDC25B) | cytotoxicity against NCL-H460 cells (in words) [1] | cytotoxicity against MCF-7 cells (in words) [2] | activity against Hela cells (in words) [3] | further results |
| --- | --- | --- | --- | --- | --- | --- |
| COC12c3c(C)cc(O)c4c3C3=C(OC(C)(O)CC3OC4=O)C1C13COC(=O)c4c(O)cc(C)c(c41)C(=O)C2C3OC(C)=O (centres unmarked) [Compound 1, verruculosin A] | 0.92 ± 0.25 µM | 0.38 ± 0.03 µM | – | – | – | – |
| Bascillosporin B [Bascillosporins B] | – | – | moderately active | moderately active | moderately active | – |
| Bascillosporin C | – | – | moderately active | moderately active | moderately active | – |
| [Na+].[Na+].[Na+].[O]=[V]([O-])([O-])[O-] [Na3VO4, reference compound] | – | 0.52 ± 0.02 µM | – | – | – | – |
| COC12c3c(C)cc(O)c4c(=O)occ(c34)C(=O)C1C13COC(=O)c4c(O)cc(C)c(c41)C(=O)C2C3OC(C)=O (centres unmarked) [Compound 4, duclauxin] | 0.95 ± 0.64 µM | 0.75 ± 0.18 µM | – | – | – | inhibitory effects on mitochondrial respiration (in words) [4]: strong inhibitory effects; activity against murine leukemia L-1210 cells (in words) [5]: highly active |
| COC1OC(=O)c2c(O)cc(C)c3c4c(c(O)c1c23)C12COC(=O)c3c(O)cc(C)c(c31)C(=O)C4C2OC(C)=O (centres unmarked) [Compound 3, bacillisporin F] | 4.41 ± 2.32 µM | 0.4 ± 0.02 µM | – | – | – | – |
| Bascillosporin A | – | – | high cytotoxicity | high cytotoxicity | – | – |
| COC(=O)CC1OC(=O)c2c(O)cc(C)c3c2C1=C(O)C1C24COC(=O)c5c(O)cc(C)c(c52)C(=O)C(C4OC(C)=O)C31OC (centres unmarked) [Compound 2, verruculosin B] | 1.22 ± 0.53 µM | – | – | – | – | – |
| CC(=O)OC1C2C(=O)c3c(C)cc(O)c4c3C1(COC4=O)c1c(O)c3c4c(c(O)cc(C)c4c12)C(=O)OC3=O (centres unmarked) [Compound 5, xenoclauxin] | 0.24 ± 0.17 µM | 0.26 ± 0.06 µM | – | – | – | – |
| Bascillosporin H | – | – | moderately active | moderately active | moderately active | – |
